Reference: patent publication US20130096145A1, “Use of 1H-quinazoline-2,4-diones” (Novartis AG, priority 2010, published 2013)

Legend:
[1] = tested on: OF1 mice; assay: Murine maximal electroshock test (MES Test); type: in vivo; conditions: p.o., pre-treatment time 1 h; protected = seizure duration 3 s or less
Protocol: (§1) Compounds of the invention were tested in OF1 mice using the maximal electroshock test (MES Test) described in detail by Schmutz et al., Naunyn-Schmiedeberg's Arch Pharmacol 1990, 342, 61-66. Briefly, generalized tonic-clonic convulsions of the hind extremities were induced by passing electrical current through temporal electrodes (50 Hz, 18 mA, 0.2s). […] 30 mg/kg carbamazepine was used as a positive control; mice were classified as protected by a compound if the duration of the seizure lasted only 3 second or less. Five mice were used for each treatment condition and the percentage of protected mice was used as readout (i.e. a compound could give 0%, 20%, 40%, 60%, 80% or 100% protection). Compounds of the invention were given at a dose of 50 mg/kg, p.o., 1 hour prior to induction of convulsions (i.e. “pre-treatment time -1 h”). ED50 values (ED: effective dose) were calculated using GraphPad Prism, v4.02. 15 s after shock administration, mouse blood was collected for determination of compounds' blood exposure.

[2] = tested on: mouse; assay: Oral bioavailability: audiogenic mouse test and/or MES test; type: in vivo; conditions: oral administration
Protocol: The oral bioavailability was tested using the audiogenic mouse test (Audiogenic seizures, R. L. Collins; Chapter 14, pages: 347-372. In: Experimental Models of Epilepsy; By: Pupura, Penry, Tower, Woodbury, Walter, Raven Press, New York, 1972. Standard Book Number: 0-911216-26-X) and/or the MES test.
as §1

Structure (SMILES)	MES-Test (1 h, po) ED50 [1] [mg/kg]	In vivo orally active [2]
CS(=O)(=O)Nn1c(=O)[nH]c2cc(C(F)(F)F)c(C3CCCO3)cc2c1=O [B-2 (R), N-[2,4-Dioxo-6-(tetrahydro-furan-2-yl)-7-trifluoromethyl-1,4-dihydro-2H-quinazolin-3-yl]-methanesulfonamide]	12.8	–
CC(O)c1cc2c(=O)n(NS(C)(=O)=O)c(=O)[nH]c2cc1C(F)(F)F (stereo not drawn) [Compound A-1, N-[6-(1-Hydroxy-ethyl)-2,4-dioxo-7-trifluoromethyl-1,4-dihydro-2H-quinazolin-3-yl]-methanesulfonamide]	–	Yes
COC(C)c1cc2c(=O)n(NS(C)(=O)=O)c(=O)[nH]c2cc1C(F)(F)F (stereo not drawn) [Compound A-2, N-[6-(1-Methoxy-ethyl)-2,4-dioxo-7-trifluoromethyl-1,4-dihydro-2H-quinazolin-3-yl]-methanesulfonamide]	–	Yes
CCC(O)c1cc2c(=O)n(NS(C)(=O)=O)c(=O)[nH]c2cc1C(F)(F)F (stereo not drawn) [Compound A-3, N-[6-(1-Hydroxy-propyl)-2,4-dioxo-7-trifluoromethyl-1,4-dihydro-2H-quinazolin-3-yl]-methanesulfonamide]	–	Yes
CC(C)OC(C)c1cc2c(=O)n(NS(C)(=O)=O)c(=O)[nH]c2cc1C(F)(F)F (stereo not drawn) [Compound A-4, N-[6-(1-Isopropoxy-ethyl)-2,4-dioxo-7-trifluoromethyl-1,4-dihydro-2H-quinazolin-3-yl]-methanesulfonamide]	–	Yes
CCOC(C)c1cc2c(=O)n(NS(C)(=O)=O)c(=O)[nH]c2cc1C(F)(F)F (stereo not drawn) [Compound A-5, N-[6-(1-Ethoxy-ethyl)-2,4-dioxo-7-trifluoromethyl-1,4-dihydro-2H-quinazolin-3-yl]-methanesulfonamide]	–	Yes
CCCOC(CC)c1cc2c(=O)n(NS(C)(=O)=O)c(=O)[nH]c2cc1C(F)(F)F (stereo not drawn) [Compound A-6, N-[2,4-Dioxo-6-(1-propoxy-propyl)-7-trifluoromethyl-1,4-dihydro-2H-quinazolin-3-yl]-methanesulfonamide]	–	Yes
CCC(OC(C)C)c1cc2c(=O)n(NS(C)(=O)=O)c(=O)[nH]c2cc1C(F)(F)F (stereo not drawn) [Compound A-7, N-[6-(1-isopropoxy-propyl)-2,4-dioxo-7-trifluoromethyl-1,4-dihydro-2H-quinazolin-3-yl]-methanesulfonamide]	–	Yes
CCOC(CC)c1cc2c(=O)n(NS(C)(=O)=O)c(=O)[nH]c2cc1C(F)(F)F (stereo not drawn) [Compound A-13, N-[6-(1-Ethoxy-propyl)-2,4-dioxo-7-trifluoromethyl-1,4-dihydro-2H-quinazolin-3-yl]-methanesulfonamide]	–	Yes
CC(OC1CCCC1)c1cc2c(=O)n(NS(C)(=O)=O)c(=O)[nH]c2cc1C(F)(F)F (stereo not drawn) [Compound A-14, N-[6-(1-Cyclopentyloxy-ethyl)-2,4-dioxo-7-trifluoromethyl-1,4-dihydro-2H-quinazolin-3-yl]-methanesulfonamide]	–	yes
CCCC(O)c1cc2c(=O)n(NS(C)(=O)=O)c(=O)[nH]c2cc1C(F)(F)F (stereo not drawn) [Compound A-15, N-[6-(1-Hydroxy-butyl)-2,4-dioxo-7-trifluoromethyl-1,4-dihydro-2H-quinazolin-3-yl]-methanesulfonamide]	–	Yes
COCCC(O)c1cc2c(=O)n(NS(C)(=O)=O)c(=O)[nH]c2cc1C(F)(F)F (stereo not drawn) [Compound A-18, N-[6-(1-Hydroxy-3-methoxy-propyl)-2,4-dioxo-7-trifluoromethyl-1,4-dihydro-2H-quinazolin-3-yl]-methanesulfonamide]	–	Yes
CS(=O)(=O)Nn1c(=O)[nH]c2cc(C(F)(F)F)c(C3CCCO3)cc2c1=O (stereo not drawn) [Compound B-2, N-[2,4-Dioxo-6-(tetrahydro-furan-2-yl)-7-trifluoromethyl-1,4-dihydro-2H-quinazolin-3-yl]-methanesulfonamide]	–	Yes
CC(C)n1nccc1-c1cc2c(=O)n(NS(C)(=O)=O)c(=O)[nH]c2cc1C(F)(F)F [Compound C-2, N-[6-(2-Isopropyl-2H-pyrazol-3-yl)-2,4-dioxo-7-trifluoromethyl-1,4-dihydro-2H-quinazolin-3-yl]-methanesulfonamide]	–	Yes
COCCn1nccc1-c1cc2c(=O)n(NS(C)(=O)=O)c(=O)[nH]c2cc1C(F)(F)F [Compound C-4, N-{6-[2-(2-Methoxy-ethyl)-2H-pyrazol-3-yl]-2,4-dioxo-7-trifluoromethyl-1,4-dihydro-2H-quinazolin-3-yl}-methanesulfonamide]	–	Yes
CS(=O)(=O)Nn1c(=O)[nH]c2cc(C(F)(F)F)c(-c3ccnn3O)cc2c1=O [Compound C-5, N-[6-(2-Hydroxy-2H-pyrazol-3-yl)-2,4-dioxo-7-trifluoromethyl-1,4-dihydro-2H-quinazolin-3-yl]-methanesulfonamide]	–	Yes
CC(C)c1cc2[nH]c(=O)n(NS(C)(=O)=O)c(=O)c2cc1-c1ccnn1C [Compound C-7, N-[7-Isopropyl-6-(2-methyl-2H-pyrazol-3-yl)-2,4-dioxo-1,4-dihydro-2H-quinazolin-3-yl]-methanesulfonamide]	–	Yes
Cn1nccc1-c1cc2c(=O)n(NS(C)(=O)=O)c(=O)[nH]c2cc1C(F)F [Compound C-9, N-[7-Difluoromethyl-6-(2-methyl-2H-pyrazol-3-yl)-2,4-dioxo-1,4-dihydro-2H-quinazolin-3-yl]-methanesulfonamide]	–	Yes
CC(C)n1nccc1-c1cc2c(=O)n(NS(C)(=O)=O)c(=O)[nH]c2cc1C(F)F [Compound C-10, N-[7-Difluoromethyl-6-(2-isopropyl-2H-pyrazol-3-yl)-2,4-dioxo-1,4-dihydro-2H-quinazolin-3-yl]-methanesulfonamide]	–	Yes
CCc1cc2[nH]c(=O)n(NS(C)(=O)=O)c(=O)c2cc1-c1ccnn1C [Compound C-11, N-[7-Ethyl-6-(2-methyl-2H-pyrazol-3-yl)-2,4-dioxo-1,4-dihydro-2H-quinazolin-3-yl]-methanesulfonamide]	–	Yes
CCc1cc2[nH]c(=O)n(NS(C)(=O)=O)c(=O)c2cc1-c1ccnn1CC [Compound C-12, N-[7-Ethyl-6-(2-ethyl-2H-pyrazol-3-yl)-2,4-dioxo-1,4-dihydro-2H-quinazolin-3-yl]-methanesulfonamide]	–	Yes
CC(C)n1nccc1-c1cc2c(=O)n(NS(C)(=O)=O)c(=O)[nH]c2cc1C(C)(F)F [Compound C-16, N-[7-(1,1-difluoro-ethyl)-6-(2-isopropyl-2H-pyrazol-3-yl)-2,4-dioxo-1,4-dihydro-2H-quinazolin-3-yl]-methanesulfonamide]	–	Yes
CC(F)c1cc2[nH]c(=O)n(NS(C)(=O)=O)c(=O)c2cc1-c1ccnn1C(C)C (stereo not drawn) [Compound C-17, N-[7-(1-fluoro-ethyl)-6-(2-isopropyl-2H-pyrazol-3-yl)-2,4-dioxo-1,4-dihydro-2H-quinazolin-3-yl]-methanesulfonamide]	–	Yes
Cn1nccc1-c1cc2c(=O)n(NS(C)(=O)=O)c(=O)[nH]c2cc1C(F)(F)F [Compound C-18, N-[6-(2-Methyl-2H-pyrazol-3-yl)-2,4-dioxo-7-trifluoromethyl-1,4-dihydro-2H-quinazolin-3-yl]-methanesulfonamide]	–	Yes
